# Measurements from ChEMBL document CHEMBL5365443, “Synthesis and biological evaluation of simplified ajudazol derivatives reveal potent 5-lipoxygenase inhibition and considerable apoptotic activity in neuroblastoma cells” (Bioorg Med Chem Lett, 2023).
# Calls of active or inactive are those of the source. No cut-off for these calls is given here.
# Legend:
# B104 [1] = assay: Induction of apoptosis in rat B104 cells assessed as DNA fragmentation at 10 uM by DNA laddering assay; assay type: functional, cell-based
# B104 [2] = assay: Induction of apoptosis in rat B104 cells assessed as DNA fragmentation at 100 uM by DNA laddering assay; assay type: functional, cell-based
# B104 [3] = assay: Antiproliferative activity against rat B104 cells assessed as reduction in cell growth by MTT assay; assay type: functional, cell-based
# B104 [4] = assay: Upregulation of ICDH level in rat B104 cells at 10 nM; assay type: functional, cell-based
# B104 [5] = assay: Upregulation of OGDH level in rat B104 cells at 10 nM; assay type: functional, cell-based
# 1321N1 = assay: Antiproliferative activity against human 1321N1 cells assessed as inhibition of cell growth by MTT assay; assay type: functional, cell-based
# [6] = molecular target: T1, Polyunsaturated fatty acid 5-lipoxygenase (Homo sapiens, UniProt P09917); assay: Inhibition of 5-LO in human neutrophils; assay type: cell-based, Neutrophil
# T1 sequence (P09917 whole entry): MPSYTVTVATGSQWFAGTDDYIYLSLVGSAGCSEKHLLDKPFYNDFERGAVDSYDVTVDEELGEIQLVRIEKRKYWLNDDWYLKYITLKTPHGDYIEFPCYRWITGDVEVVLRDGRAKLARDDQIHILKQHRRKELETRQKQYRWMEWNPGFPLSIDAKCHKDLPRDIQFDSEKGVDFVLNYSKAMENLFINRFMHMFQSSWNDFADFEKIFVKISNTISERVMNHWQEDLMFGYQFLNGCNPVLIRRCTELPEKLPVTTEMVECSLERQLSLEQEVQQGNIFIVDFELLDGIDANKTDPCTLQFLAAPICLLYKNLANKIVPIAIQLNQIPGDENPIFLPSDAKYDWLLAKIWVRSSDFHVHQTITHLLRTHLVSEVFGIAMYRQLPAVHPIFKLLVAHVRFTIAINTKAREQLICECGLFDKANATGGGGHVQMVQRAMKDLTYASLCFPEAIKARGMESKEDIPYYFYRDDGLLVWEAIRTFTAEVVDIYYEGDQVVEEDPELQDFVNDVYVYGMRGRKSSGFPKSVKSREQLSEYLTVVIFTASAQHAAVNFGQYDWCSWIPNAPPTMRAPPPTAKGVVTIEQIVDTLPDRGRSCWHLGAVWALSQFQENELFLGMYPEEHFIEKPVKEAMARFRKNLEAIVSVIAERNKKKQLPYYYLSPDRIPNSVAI
# B104 [7] = assay: Upregulation of LDH level in rat B104 cells at 10 nM; assay type: functional, cell-based
# SH-SY5Y = assay: Antiproliferative activity against human SH-SY5Y cells assessed as reduction in cell growth at 10 to 1000 nM; assay type: functional, cell-based; settings: dose 10-1000 nM
# [8] = molecular target: T1, Polyunsaturated fatty acid 5-lipoxygenase; assay: Inhibition of 5-LO (unknown origin)
# Prostaglandin E synthase = molecular target: T2, Prostaglandin E synthase (Homo sapiens, UniProt O14684); assay: Inhibition of mPGES-1 (unknown origin)
# T2 sequence (O14684 whole entry): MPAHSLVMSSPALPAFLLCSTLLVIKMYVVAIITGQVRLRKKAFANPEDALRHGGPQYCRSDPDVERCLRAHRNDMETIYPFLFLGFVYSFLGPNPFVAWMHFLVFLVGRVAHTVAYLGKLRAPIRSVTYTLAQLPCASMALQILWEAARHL
# B104 [9] = assay: Antiproliferative activity against rat B104 cells assessed as reduction in cell growth at 10 to 1000 nM; assay type: functional, cell-based; settings: dose 10-1000 nM
# [10] = Drug degradation in methanol assessed as half life; assay type: ADME
# B104 [11] = assay: Upregulation of LDH mRNA expression in rat B104 cells; assay type: functional, cell-based
# B104 [12] = assay: Upregulation of ICDH mRNA expression in rat B104 cells; assay type: functional, cell-based
# B104 [13] = assay: Upregulation of […] mRNA expression in rat B104 cells; assay type: functional, cell-based
# B104 [14] = assay: Upregulation of NADH mRNA expression in rat B104 cells; assay type: functional, cell-based
# B104 [15] = assay: Effect on NADH:UQ oxidoreductase expression in rat B104 cells; assay type: functional, cell-based
SMILES,IC50 [6],IC50 [8],IC50 (Prostaglandin E synthase),half-life [10],Activity (B104 [1]),Activity (B104 [2]),Activity (B104 [3]),Activity (B104 [4]),Activity (B104 [5]),IC50 (1321N1),Activity (B104 [7]),Activity (SH-SY5Y),Activity (B104 [9]),Activity (B104 [11]),Activity (B104 [12]),Activity (B104 [13]),Activity (B104 [14]),Activity (B104 [15])
C=C(C/C=C\C=C/CC/C=C/CN(C)C(=O)/C=C(\C)OC)c1nc(C[C@H](C)[C@@H]2CC[C@@H](C)C[C@H]2O)co1,5.2 µM,1 µM,18.6 µM,,Active,inactive,Active,Active,Active,3.3 µM,inactive,Active,Active,,,,,
C=C(C/C=C\C=C/CC/C=C/CN(C)C(=O)/C=C(\C)OC)c1ncco1,> 30 µM,24.5 µM,> 30 µM,,,,,,,4.3 µM,,,,,,,,
C=C(I)CCO[Si](CC)(CC)CC,,,,,,,,,,,,,,inactive,Active,Active,Active,Active

# Further compounds by falling IC50 [6], results first:
IC50 [6],IC50 [8],IC50 (Prostaglandin E synthase),half-life [10],SMILES,Activity (B104 [1]),Activity (B104 [2]),Activity (B104 [3]),Activity (B104 [4]),Activity (B104 [5]),IC50 (1321N1),Activity (B104 [7]),Activity (SH-SY5Y),Activity (B104 [9]),Activity (B104 [11]),Activity (B104 [12]),Activity (B104 [13]),Activity (B104 [14]),Activity (B104 [15])
2.5 µM,1.1 µM,3.2 µM,~168 h,C=C(C/C=C\C=C/CC/C=C/CN(C)C(=O)/C=C(\C)OC)c1nc(C[C@@H](C)[C@H]2OC(=O)c3c(ccc(C)c3O)[C@@H]2O)co1,Active,inactive,Active,,,9.4 µM,,Active,Active,,,,,
1.6 µM,6.9 µM,,,CO/C(C)=C/C(=O)N(C)C/C=C/CC/C=C\C=C/C[C@@H](C)c1nc(C[C@@H](C)[C@H]2OC(=O)c3c(ccc(C)c3O)[C@@H]2O)co1,,,,,,,,,,,,,,
